In general, IC50 refers to the concentration at which inhibition is half-maximal.

One assay concerns the target Human mTOR (FLAG-TOR) (Homo sapiens, UniProt P42345). As to the kind of experiment: mTOR kinase assay (DELFIA format, purified enzyme). The class given is biochemical. The conditions noted are these: read-out: IC50 mTOR.
The test system of assay [1] is human breast MDA-MB-361 tumor cell line. Briefly: In vitro cell culture growth assay (MTS), MDA-MB-361. The class given is cell-based. As to conditions: Homo sapiens, MTS cell growth assay, three days after drug treatment, MDA-MB-361 cells, read-out: IC50 MDA-MB-361. Background: Tetrazolium dyes change colour on reduction, which living cells bring about.
Assay [2] deals with human prostate PC3-mm2 tumor cell line. Briefly: In vitro cell culture growth assay (MTS), PC3-mm2. The conditions noted are these: Homo sapiens, PC3MM2, 72 h, MTS cell growth assay, three days after drug treatment, PC3-mm2 cells; read-out: IC50 PC3-mm2. Format: cell-based.
For another assay, the target named is PI3K-α (Homo sapiens, UniProt P42336). Briefly: PI3K-alpha fluorescence polarization assay. As to conditions: read-out: IC50 PI3Kα. Background: Polarisation of emitted light reports the rotation of a fluorescent probe.
Sequence of PI3K-α (P42336 whole entry, species assumed): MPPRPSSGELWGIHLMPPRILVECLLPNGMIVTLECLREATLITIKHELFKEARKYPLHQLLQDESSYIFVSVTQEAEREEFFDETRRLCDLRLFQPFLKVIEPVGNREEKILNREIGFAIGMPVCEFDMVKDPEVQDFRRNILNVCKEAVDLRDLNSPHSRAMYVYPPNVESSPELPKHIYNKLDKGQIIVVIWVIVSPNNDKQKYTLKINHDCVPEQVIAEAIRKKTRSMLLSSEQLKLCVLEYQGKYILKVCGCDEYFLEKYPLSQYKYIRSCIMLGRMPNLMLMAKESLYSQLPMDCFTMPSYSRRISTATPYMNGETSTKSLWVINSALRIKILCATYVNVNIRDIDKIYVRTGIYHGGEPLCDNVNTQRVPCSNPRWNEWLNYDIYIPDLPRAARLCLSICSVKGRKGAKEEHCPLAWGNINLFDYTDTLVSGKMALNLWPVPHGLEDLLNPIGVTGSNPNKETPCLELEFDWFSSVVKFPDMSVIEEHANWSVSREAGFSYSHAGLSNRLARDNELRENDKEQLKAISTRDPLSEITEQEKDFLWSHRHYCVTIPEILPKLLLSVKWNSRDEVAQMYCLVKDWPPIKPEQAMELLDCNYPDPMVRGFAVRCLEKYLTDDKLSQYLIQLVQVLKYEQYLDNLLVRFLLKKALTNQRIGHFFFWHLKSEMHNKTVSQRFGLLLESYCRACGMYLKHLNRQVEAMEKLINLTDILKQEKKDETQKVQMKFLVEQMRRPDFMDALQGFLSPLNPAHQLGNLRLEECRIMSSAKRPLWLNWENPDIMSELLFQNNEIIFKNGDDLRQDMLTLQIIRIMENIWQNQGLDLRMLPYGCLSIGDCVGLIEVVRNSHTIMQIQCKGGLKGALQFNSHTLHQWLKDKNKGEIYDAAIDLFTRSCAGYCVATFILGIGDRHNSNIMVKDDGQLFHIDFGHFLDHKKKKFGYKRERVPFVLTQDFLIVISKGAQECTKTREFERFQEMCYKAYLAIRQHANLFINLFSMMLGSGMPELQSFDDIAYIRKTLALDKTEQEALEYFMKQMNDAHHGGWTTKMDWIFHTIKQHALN
Sequence of PI3K-α (P27986 whole entry partner, species assumed): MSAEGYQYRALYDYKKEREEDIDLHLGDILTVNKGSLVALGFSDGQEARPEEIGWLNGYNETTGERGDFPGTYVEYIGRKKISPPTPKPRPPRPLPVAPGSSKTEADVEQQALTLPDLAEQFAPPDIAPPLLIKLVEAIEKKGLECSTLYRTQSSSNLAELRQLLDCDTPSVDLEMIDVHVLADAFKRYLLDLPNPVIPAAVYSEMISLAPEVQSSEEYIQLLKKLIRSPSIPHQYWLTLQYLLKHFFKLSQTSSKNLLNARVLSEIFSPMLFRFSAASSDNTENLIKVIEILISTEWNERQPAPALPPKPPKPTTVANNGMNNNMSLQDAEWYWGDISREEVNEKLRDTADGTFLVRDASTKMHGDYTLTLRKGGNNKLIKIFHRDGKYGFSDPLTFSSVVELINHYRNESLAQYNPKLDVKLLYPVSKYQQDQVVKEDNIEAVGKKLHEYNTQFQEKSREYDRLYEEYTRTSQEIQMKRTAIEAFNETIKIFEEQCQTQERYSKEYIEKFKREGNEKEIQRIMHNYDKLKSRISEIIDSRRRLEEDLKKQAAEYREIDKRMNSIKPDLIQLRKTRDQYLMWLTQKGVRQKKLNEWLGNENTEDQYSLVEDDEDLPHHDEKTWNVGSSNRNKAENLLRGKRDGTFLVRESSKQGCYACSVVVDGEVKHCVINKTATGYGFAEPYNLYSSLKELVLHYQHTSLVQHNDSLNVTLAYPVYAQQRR
Another assay addresses PI3K-γ (Homo sapiens, UniProt P48736). As to the kind of experiment: PI3K-gamma fluorescence polarization assay. As to conditions: read-out: IC50 PI3Kγ.

Like-named read-outs stand apart in the source and are kept apart here. Where only a bound is given, the exact number is not on record here.

Sequence of PI3K-γ (P48736 whole entry, species assumed): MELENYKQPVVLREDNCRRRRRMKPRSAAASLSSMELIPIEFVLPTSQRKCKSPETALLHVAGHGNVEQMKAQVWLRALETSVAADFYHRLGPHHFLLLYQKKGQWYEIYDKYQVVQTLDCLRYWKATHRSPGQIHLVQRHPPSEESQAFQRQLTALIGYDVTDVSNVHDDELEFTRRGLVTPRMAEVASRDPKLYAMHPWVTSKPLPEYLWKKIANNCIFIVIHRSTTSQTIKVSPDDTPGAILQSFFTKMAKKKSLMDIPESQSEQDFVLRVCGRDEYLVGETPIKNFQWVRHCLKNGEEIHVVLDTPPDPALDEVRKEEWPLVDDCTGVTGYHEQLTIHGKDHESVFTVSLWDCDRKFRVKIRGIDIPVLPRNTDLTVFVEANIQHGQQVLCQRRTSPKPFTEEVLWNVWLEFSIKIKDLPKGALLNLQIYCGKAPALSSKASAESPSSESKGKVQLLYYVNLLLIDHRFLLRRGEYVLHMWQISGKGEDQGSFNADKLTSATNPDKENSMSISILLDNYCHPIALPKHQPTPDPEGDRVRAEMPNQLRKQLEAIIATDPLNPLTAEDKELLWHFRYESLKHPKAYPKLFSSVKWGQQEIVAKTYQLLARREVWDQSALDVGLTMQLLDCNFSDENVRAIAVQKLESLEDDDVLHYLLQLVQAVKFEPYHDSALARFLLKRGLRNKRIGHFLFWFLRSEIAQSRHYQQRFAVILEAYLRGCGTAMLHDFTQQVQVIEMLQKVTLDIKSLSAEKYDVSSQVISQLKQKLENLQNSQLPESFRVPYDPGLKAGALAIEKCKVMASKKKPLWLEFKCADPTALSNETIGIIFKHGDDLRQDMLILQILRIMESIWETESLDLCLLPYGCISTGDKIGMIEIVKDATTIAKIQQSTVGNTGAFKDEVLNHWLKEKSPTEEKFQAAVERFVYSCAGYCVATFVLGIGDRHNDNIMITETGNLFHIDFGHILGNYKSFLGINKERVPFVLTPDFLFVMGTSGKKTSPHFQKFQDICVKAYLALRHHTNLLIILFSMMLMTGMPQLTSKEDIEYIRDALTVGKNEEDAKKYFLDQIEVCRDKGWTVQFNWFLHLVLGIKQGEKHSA
Sequence of Human mTOR (FLAG-TOR) (P42345 1360-2549 limits assumed): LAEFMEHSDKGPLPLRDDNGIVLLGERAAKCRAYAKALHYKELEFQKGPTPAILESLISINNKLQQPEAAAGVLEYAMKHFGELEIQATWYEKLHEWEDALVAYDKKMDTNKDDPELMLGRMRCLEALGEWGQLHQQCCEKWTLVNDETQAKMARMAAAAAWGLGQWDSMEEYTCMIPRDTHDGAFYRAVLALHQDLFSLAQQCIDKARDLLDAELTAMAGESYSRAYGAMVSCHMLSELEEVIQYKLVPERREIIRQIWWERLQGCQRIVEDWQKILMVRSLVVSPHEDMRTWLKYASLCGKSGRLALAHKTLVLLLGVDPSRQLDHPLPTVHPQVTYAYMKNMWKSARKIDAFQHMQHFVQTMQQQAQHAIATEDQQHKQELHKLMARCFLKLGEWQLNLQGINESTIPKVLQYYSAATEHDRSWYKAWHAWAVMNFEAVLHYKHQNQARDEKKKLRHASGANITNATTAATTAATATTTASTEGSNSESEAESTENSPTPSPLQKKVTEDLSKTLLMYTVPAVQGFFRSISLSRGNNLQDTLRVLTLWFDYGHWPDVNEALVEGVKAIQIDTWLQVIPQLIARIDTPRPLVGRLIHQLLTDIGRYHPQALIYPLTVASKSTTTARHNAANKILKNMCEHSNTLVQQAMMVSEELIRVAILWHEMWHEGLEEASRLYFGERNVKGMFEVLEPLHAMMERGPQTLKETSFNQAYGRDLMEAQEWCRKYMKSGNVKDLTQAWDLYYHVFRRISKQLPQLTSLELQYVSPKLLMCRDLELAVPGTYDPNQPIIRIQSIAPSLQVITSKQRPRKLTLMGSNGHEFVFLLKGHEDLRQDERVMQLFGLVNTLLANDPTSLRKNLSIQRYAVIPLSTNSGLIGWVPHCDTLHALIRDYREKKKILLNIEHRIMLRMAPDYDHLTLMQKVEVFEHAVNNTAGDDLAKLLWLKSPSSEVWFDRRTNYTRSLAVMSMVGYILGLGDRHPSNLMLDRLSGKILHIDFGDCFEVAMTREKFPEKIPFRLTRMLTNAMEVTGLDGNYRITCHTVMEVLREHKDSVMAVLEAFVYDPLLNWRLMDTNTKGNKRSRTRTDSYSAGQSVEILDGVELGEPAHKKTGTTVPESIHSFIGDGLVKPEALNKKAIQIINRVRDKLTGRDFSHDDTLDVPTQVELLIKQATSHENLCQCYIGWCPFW

Regarding `COCCNC(=O)c1ccc(NC(=O)Nc2ccc(-c3nc(N4CCOC[C@@H]4C)nc(N4CCOC[C@@H]4C)n3)cc2)cc1` [Example 639, 4-{[(4-{4,6-bis[(3S)-3-methylmorpholin-4-yl]-1,3,5-triazin-2-yl}phenyl)carbamoyl]amino}-N-(2-methoxyethyl)benzamide], the IC50 was determined as 1 nM at Human mTOR (FLAG-TOR); 16 nM in assay [1] (72 h); 27 nM in assay [2]; 14.5 nM at PI3K-α; 123 nM on PI3K-γ.

For the molecule `CN1CCN(C(=O)c2ccc(NC(=O)Nc3ccc(-c4nc(N5CCOCC5)nc(N5CCN(C(=O)N(C)C)CC5)n4)cc3)cc2)CC1` [Example 643, N,N-dimethyl-4-(4-{4-[({4-[(4-methylpiperazin-1-yl)carbonyl]phenyl}carbamoyl)amino]phenyl}-6-morpholin-4-yl-1,3,5-triazin-2-yl)piperazine-1-carboxamide], the IC50 stood at 7 nM at Human mTOR (FLAG-TOR); 19 nM in assay [1] (MDA-MB-361, 72 h); 59 nM in assay [2]; 6.2 nM on PI3K-α; 42.5 nM at PI3K-γ.

On to `CN(C)C(=O)N1CCN(c2nc(-c3ccc(NC(=O)Nc4ccc(C(=O)Nc5ccnnc5)cc4)cc3)nc(N3CCOCC3)n2)CC1` [Example 644, N,N-dimethyl-4-{4-morpholin-4-yl-6-[4-({[4-(pyridazin-4-ylcarbamoyl)phenyl]carbamoyl}amino)phenyl]-1,3,5-triazin-2-yl}piperazine-1-carboxamide], for which the IC50 at Human mTOR (FLAG-TOR) was found to be 1 nM; in assay [1] (72 h), 51 nM; in assay [2] it was 185 nM; on PI3K-α, 7.8 nM; at PI3K-γ, 59.5 nM.

As to `CN(C)C(=O)N1CCN(c2nc(-c3ccc(NC(=O)Nc4ccc(C(=O)O)cc4)cc3)nc(N3CCOCC3)n2)CC1` [Example 646, 4-{[(4-{4-[4-(dimethylcarbamoyl)piperazin-1-yl]-6-morpholin-4-yl-1,3,5-triazin-2-yl}phenyl)carbamoyl]amino}benzoic acid], the IC50 amounted to 6 nM on Human mTOR (FLAG-TOR); 32 nM in assay [1] (MDA-MB-361, 72 h); 223 nM in assay [2]; 23 nM at PI3K-α; 85.5 nM at PI3K-γ.

Consider `COCCNC(=O)c1ccc(NC(=O)Nc2ccc(-c3nc(N4CCOCC4)nc(N4CCN(C(=O)N(C)C)CC4)n3)cc2)cc1` [Example 647, 4-(4-{4-[({4-[(2-methoxyethyl)carbamoyl]phenyl}carbamoyl)amino]phenyl}-6-morpholin-4-yl-1,3,5-triazin-2-yl)-N,N-dimethylpiperazine-1-carboxamide], for which the IC50 at Human mTOR (FLAG-TOR) amounted to 3 nM; in assay [1] (72 h), 46 nM; in assay [2], 136 nM; on PI3K-α, 24.3 nM; at PI3K-γ, 107 nM.

Take `CN(C)CCN(C)C(=O)c1ccc(NC(=O)Nc2ccc(-c3nc(N4CCOCC4)nc(N4CCN(C(=O)N(C)C)CC4)n3)cc2)cc1` [Example 648, 4-[4-(4-{[(4-{[2-(dimethylamino)ethyl](methyl)carbamoyl}phenyl)carbamoyl]amino}phenyl)-6-morpholin-4-yl-1,3,5-triazin-2-yl]-N,N-dimethylpiperazine-1-carboxamide]: the IC50 at Human mTOR (FLAG-TOR) was 3 nM; in assay [1] (72 h), 12 nM; in assay [2], 34 nM; on PI3K-α it was 2 nM; at PI3K-γ it was 27 nM.

`CCN1CCN(C(=O)c2ccc(NC(=O)Nc3ccc(-c4nc(N5CCOCC5)nc(N5CCN(C(=O)N(C)C)CC5)n4)cc3)cc2)CC1` [Example 649, 4-(4-{4-[({4-[(4-ethylpiperazin-1-yl)carbonyl]phenyl}carbamoyl)amino]phenyl}-6-morpholin-4-yl-1,3,5-triazin-2-yl)-N,N-dimethylpiperazine-1-carboxamide]: the concentration for half-maximal inhibition (IC50) on Human mTOR (FLAG-TOR) was 6 nM; in assay [1] (MDA-MB-361, 72 h), 9 nM; in assay [2] it was 37 nM; on PI3K-α, 6.4 nM; at PI3K-γ it was 38 nM.

For the molecule `OCc1cccc(-c2nc(N3CCOCC3)nc(N3C4CCC3COC4)n2)c1` [Example 682, {3-[4-morpholin-4-yl-6-(3-oxa-8-azabicyclo[3.2.1]oct-8-yl)-1,3,5-triazin-2-yl]phenyl}methanol], the IC50 was 88.5 nM on Human mTOR (FLAG-TOR); 1040 nM in assay [1] (72 h); 766 nM in assay [2]; 84.3 nM on PI3K-α; 1280 nM on PI3K-γ.

Take `Oc1cccc(-c2nc(N3CCOCC3)nc(N3C4CCC3COC4)n2)c1` [Example 683, 3-[4-morpholin-4-yl-6-(3-oxa-8-azabicyclo[3.2.1]oct-8-yl)-1,3,5-triazin-2-yl]phenol]: the IC50 on Human mTOR (FLAG-TOR) was 25 nM; in assay [1] (72 h), 673 nM; in assay [2], 584 nM; on PI3K-α it was 121 nM; on PI3K-γ it was 1330 nM.

In the case of `Nc1nc2cc(-c3nc(N4CCOCC4)nc(N4C5CCC4COC5)n3)ccc2[nH]1` [Example 684, 5-[4-morpholin-4-yl-6-(3-oxa-8-azabicyclo[3.2.1]oct-8-yl)-1,3,5-triazin-2-yl]-1H-benzimidazol-2-amine], the IC50 is 23.5 nM at Human mTOR (FLAG-TOR); 806 nM in assay [1] (72 h); 1020 nM in assay [2]; 154 nM on PI3K-α; 2340 nM on PI3K-γ.

Consider `O=C(Nc1ccccc1)Nc1ccc(-c2nc(N3CCOCC3)nc(N3C4CCC3CC(O)C4)n2)cc1` (centres unmarked) [Example 685, 1-{4-[4-(3-hydroxy-8-azabicyclo[3.2.1]oct-8-yl)-6-morpholin-4-yl-1,3,5-triazin-2-yl]phenyl}-3-phenylurea], for which the IC50 at Human mTOR (FLAG-TOR) is 0.825 nM; in assay [1] (72 h) it was greater than 10000 nM; in assay [2] it was greater than 10000 nM; on PI3K-α it was 7 nM; at PI3K-γ it was 26.5 nM.

Consider `CN1CCN(Nc2nc(-c3ccc(NC(=O)Nc4ccccc4)cc3)nc(N3CCOCC3)n2)CC1` [Example 686, 1-(4-{4-[(4-methylpiperazin-1-yl)amino]-6-morpholin-4-yl-1,3,5-triazin-2-yl}phenyl)-3-phenylurea], for which the IC50 is 26 nM at Human mTOR (FLAG-TOR); 569 nM in assay [1] (72 h); 1100 nM in assay [2]; 77 nM on PI3K-α; 540 nM on PI3K-γ.

Turning to `CN1CCC(Oc2nc(-c3ccc(NC(=O)Nc4ccncc4)cc3)nc(N3CCOCC3)n2)CC1` [Example 687, 1-(4-{4-[(1-methylpiperidin-4-yl)oxy]-6-morpholin-4-yl-1,3,5-triazin-2-yl}phenyl)-3-pyridin-4-ylurea], the IC50 on Human mTOR (FLAG-TOR) came to 4.85 nM; in assay [1] (72 h), 355 nM; in assay [2] it was 389 nM; at PI3K-α it was 4 nM; on PI3K-γ, 39.5 nM.

Regarding `O=C(Nc1ccncc1)Nc1ccc(-c2nc(OC3CCNCC3)nc(N3CCOCC3)n2)cc1` [Example 688, 1-{4-[4-morpholin-4-yl-6-(piperidin-4-yloxy)-1,3,5-triazin-2-yl]phenyl}-3-pyridin-4-ylurea], the IC50 came to 8 nM at Human mTOR (FLAG-TOR); 1410 nM in assay [1] (72 h); 1950 nM in assay [2]; 3 nM at PI3K-α; 35.5 nM at PI3K-γ.

As for `CCOC(=O)N1CCC(Oc2nc(-c3ccc(NC(=O)Nc4ccncc4)cc3)nc(N3CCOCC3)n2)CC1` [Example 689, ethyl 4-[(4-morpholin-4-yl-6-{4-[(pyridin-4-ylcarbamoyl)amino]phenyl}-1,3,5-triazin-2-yl)oxy]piperidine-1-carboxylate], the IC50 was determined as 39 nM at Human mTOR (FLAG-TOR); 53 nM in assay [1] (72 h); 85 nM in assay [2]; 217 nM on PI3K-α; 2480 nM on PI3K-γ.

For the molecule `CCNC(=O)N1CCC(Oc2nc(-c3ccc(NC(=O)Nc4ccncc4)cc3)nc(N3CCOCC3)n2)CC1` [Example 690, N-ethyl-4-[(4-morpholin-4-yl-6-{4-[(pyridin-4-ylcarbamoyl)amino]phenyl}-1,3,5-triazin-2-yl)oxy]piperidine-1-carboxamide], the IC50 at Human mTOR (FLAG-TOR) turned out to be 0.525 nM; in assay [1] (72 h), 112 nM; in assay [2], 405 nM; at PI3K-α, 5 nM; on PI3K-γ, 83.5 nM.

Turning to `CC(C)(C)OC(=O)N1CCC(Oc2nc(-c3ccc(NC(=O)Nc4ccncc4)cc3)nc(N3CCOCC3)n2)CC1` [Example 691, tert-butyl 4-[(4-morpholin-4-yl-6-{4-[(pyridin-4-ylcarbamoyl)amino]phenyl}-1,3,5-triazin-2-yl)oxy]piperidine-1-carboxylate], the IC50 stood at 1.35 nM at Human mTOR (FLAG-TOR); 52 nM in assay [1] (72 h); 131 nM in assay [2]; 6 nM at PI3K-α; 199 nM on PI3K-γ.

As for `NS(=O)(=O)N1CCC(Oc2nc(-c3ccc(NC(=O)Nc4ccncc4)cc3)nc(N3CCOCC3)n2)CC1` [Example 692, 4-[(4-morpholin-4-yl-6-{4-[(pyridin-4-ylcarbamoyl)amino]phenyl}-1,3,5-triazin-2-yl)oxy]piperidine-1-sulfonamide], the IC50 at Human mTOR (FLAG-TOR) is 3.75 nM; in assay [1] (72 h), 97 nM; in assay [2], 326 nM; on PI3K-α, 3.2 nM; on PI3K-γ, 29 nM.

In the case of `CN(C)CCNC(=O)c1ccc(NC(=O)Nc2ccc(-c3nc(N4CCOCC4)nc(N4C5CCC4COC5)n3)cc2)cc1` [Example 694, N-[2-(dimethylamino)ethyl]-4-[({4-[4-morpholin-4-yl-6-(3-oxa-8-azabicyclo[3.2.1]oct-8-yl)-1,3,5-triazin-2-yl]phenyl}carbamoyl)amino]benzamide], the IC50 on Human mTOR (FLAG-TOR) was 0.245 nM; in assay [1] (72 h) it was less than 3 nM; in assay [2], 11 nM; on PI3K-α it was 2 nM; on PI3K-γ it was 40 nM.

The record behind these values is US20090304692A1, “TRIAZINE COMPOUNDS AS PI3 KINASE AND MTOR INHIBITORS” (Wyeth, priority 2008, published 2009).
